In US20070128217A1 (priority 2003, published 2007):

Key:
[1] = system: rabbit serum obtained by immunizing a rabbit with the SARS-CoV strain Frankfurt 1; format: binding; set-up: Binding of a rabbit serum to linear peptides / Binding of a rabbit serum to looped peptides / Rabbit serum linear peptides / Rabbit serum looped peptides / Binding of a rabbit serum to linear peptides of protein N of SARS-CoV Urbani (Rabbit serum linear peptides) / Binding of a rabbit serum to looped/cyclic peptides of protein N of SARS-CoV Urbani (Rabbit serum looped peptides): unit not given here
[2] = system: antibodies in sera from SARS patients (sera 1a, 1b, 2, 6, 37, 62, London, SARS-yellow, SARS-green); format: binding, human; set-up: Binding of serum 6 to linear peptides of protein X1 of SARS-CoV Urbani / Binding of serum 37 to linear peptides of protein X1 of SARS-CoV Urbani / Binding of serum 6 to looped/cyclic peptide (PEPSCAN-ELISA) / Binding of serum 37 to looped/cyclic peptide (PEPSCAN-ELISA) / Binding of serum 37 to looped/cyclic peptides of protein X1 of SARS-CoV Urbani / Binding of serum 6 to linear peptides of protein X2 / Binding of serum 37 to linear peptides of protein X2 / Binding of serum 37 to looped/cyclic peptides of protein X2 of SARS-CoV Urbani / Binding of serum 6 to linear peptides of protein M of SARS-CoV Urbani / Binding of serum 37 to linear peptides of protein M of SARS-CoV Urbani / Binding of serum 6 to looped/cyclic peptides of protein M of SARS-CoV Urbani / Binding of serum 37 to looped/cyclic peptides of protein M of SARS-CoV Urbani / Binding of serum 6 to linear peptides of protein X3 of SARS-CoV Urbani / Binding of serum 37 to linear peptides of protein X3 of SARS-CoV Urbani / Binding of serum 37 to looped/cyclic peptides of protein X3 of SARS-CoV Urbani / Binding of serum 6 to linear peptides of protein X4 of SARS-CoV Urbani / Binding of serum 37 to linear peptides of protein X4 of SARS-CoV Urbani / Binding of serum 37 to looped/cyclic peptides of protein X4 of SARS-CoV Urbani / Binding of serum 6 to linear peptides of protein X5 of SARS-CoV Urbani / Binding of serum 37 to linear peptides of protein X5 of SARS-CoV Urbani / Binding of serum 37 to looped/cyclic peptides of protein X5 of SARS-CoV Urbani / Binding of serum 6 to linear peptides of protein N of SARS-CoV Urbani / Binding of serum 37 to linear peptides of protein N of SARS-CoV Urbani / Binding of serum 6 to linear peptide (PEPSCAN-ELISA) / Binding of serum 1a to looped/cyclic peptides of protein N of SARS-CoV Urbani / Binding of serum 1b to looped/cyclic peptides of protein N of SARS-CoV Urbani / Binding of serum 2 to looped/cyclic peptides of protein N of SARS-CoV Urbani / Binding of serum 6 to looped/cyclic peptides of protein N of SARS-CoV Urbani / Binding of serum 37 to looped/cyclic peptides of protein N of SARS-CoV Urbani / Binding of serum 62 to looped/cyclic peptides of protein N of SARS-CoV Urbani / Binding of serum London to looped/cyclic peptides of protein N of SARS-CoV Urbani / Binding of serum SARS-green to looped/cyclic peptides of protein N of SARS-CoV Urbani: unit not given here
[3] = system: recombinant human anti-SARS-CoV antibody 03-018; format: binding; set-up: Binding of antibody 03-018 to linear peptides of the N protein of SARS-CoV Urbani / Binding of antibody 03-018 to looped/cyclic peptides of the N protein of SARS-CoV Urbani: unit not given here
[4] = system: control sera (pooled serum of ten healthy LUMC hospital workers; commercial negative donor pooled serum from the Dutch bloodbank); format: binding, human; set-up: Binding of Control serum LUMC to linear peptides / Binding of Control serum Blood-bank to linear peptides / Binding of Control serum LUMC to looped peptides / Binding of Control Serum Blood-Bank to Looped peptides / Binding of Control serum LUMC to linear peptides of the protein M of SARS-CoV Urbani / Binding of Control serum Blood-bank to linear peptides of the protein M of SARS-CoV Urbani / Binding of Control serum LUMC to looped peptides of the protein M of SARS-CoV Urbani / Binding of Control Serum Blood-Bank to Looped peptides of the protein M of SARS-CoV Urbani: unit not given here

Sequence: SGTWLTYHGAIKLDD
- Binding of a rabbit serum to linear peptides of protein N of SARS-CoV Urbani (Rabbit serum linear peptides) [1]: 0.1
- Binding of a rabbit serum to looped/cyclic peptides of protein N of SARS-CoV Urbani (Rabbit serum looped peptides) [1]: 0.5
- Binding of serum 1a to linear peptides of protein N of SARS-CoV Urbani [2]: 0.2
- Binding of serum 1a to looped/cyclic peptides of protein N of SARS-CoV Urbani [2]: 0.8
- Binding of serum 1b to linear peptides of protein N of SARS-CoV Urbani [2]: 0.1
- Binding of serum 1b to looped/cyclic peptides of protein N of SARS-CoV Urbani [2]: 0.5
- Binding of serum 2 to linear peptides of protein N of SARS-CoV Urbani [2]: 0.1
- Binding of serum 2 to looped/cyclic peptides of protein N of SARS-CoV Urbani [2]: 0.7
- Binding of serum 6 to linear peptides of protein N of SARS-CoV Urbani [2]: 0.1
- Binding of serum 6 to looped/cyclic peptides of protein N of SARS-CoV Urbani [2]: 0.4
- Binding of serum 37 to linear peptides of protein N of SARS-CoV Urbani [2]: 0.7
- Binding of serum 37 to looped/cyclic peptides of protein N of SARS-CoV Urbani [2]: 1.0
- Binding of serum 62 to linear peptides of protein N of SARS-CoV Urbani [2]: 0.5
- Binding of serum 62 to looped/cyclic peptides of protein N of SARS-CoV Urbani [2]: 1.2
- Binding of serum London to linear peptides of protein N of SARS-CoV Urbani [2]: 0.6
- Binding of serum London to looped/cyclic peptides of protein N of SARS-CoV Urbani [2]: 0.8
- Binding of serum SARS-green to linear peptides of protein N of SARS-CoV Urbani [2]: 0.5
- Binding of serum SARS-green to looped/cyclic peptides of protein N of SARS-CoV Urbani [2]: 1.8
- Binding of serum SARS-yellow to linear peptides of protein N of SARS-CoV Urbani [2]: 0.6
- Binding of serum SARS-yellow to looped/cyclic peptides of protein N of SARS-CoV Urbani [2]: 1.6
- Binding of antibody 03-018 to linear peptides of the N protein of SARS-CoV Urbani [3]: 0.1
- Binding of antibody 03-018 to looped/cyclic peptides of the N protein of SARS-CoV Urbani [3]: 0.2
- Control Serum Blood-Bank Looped peptides [4]: 1.0
- Control serum Blood-bank linear peptides [4]: 0.5
- Control serum LUMC linear peptides [4]: 0.5
- Control serum LUMC looped peptides [4]: 0.8

Sequence: SKVSGKGQQQQGQTV
- Binding of a rabbit serum to linear peptides of protein N of SARS-CoV Urbani (Rabbit serum linear peptides) [1]: 0.1
- Binding of a rabbit serum to looped/cyclic peptides of protein N of SARS-CoV Urbani (Rabbit serum looped peptides) [1]: 0.6
- Binding of serum 1a to linear peptide (PEPSCAN-ELISA) [2]: 0.2
- Binding of serum 1a to looped/cyclic peptides of protein N of SARS-CoV Urbani [2]: 0.4
- Binding of serum 1b to linear peptide (PEPSCAN-ELISA) [2]: 0.1
- Binding of serum 1b to looped/cyclic peptides of protein N of SARS-CoV Urbani [2]: 0.2
- Binding of serum 2 to linear peptide (PEPSCAN-ELISA) [2]: 0.3
- Binding of serum 2 to looped/cyclic peptides of protein N of SARS-CoV Urbani [2]: 0.7
- Binding of serum 6 to linear peptide (PEPSCAN-ELISA) [2]: 0.1
- Binding of serum 6 to looped/cyclic peptides of protein N of SARS-CoV Urbani [2]: 0.4
- Binding of serum 37 to linear peptide (PEPSCAN-ELISA) [2]: 0.5
- Binding of serum 37 to looped/cyclic peptides of protein N of SARS-CoV Urbani [2]: 0.6
- Binding of serum 62 to linear peptide (PEPSCAN-ELISA) [2]: 0.6
- Binding of serum 62 to looped/cyclic peptides of protein N of SARS-CoV Urbani [2]: 0.6
- Binding of serum London to linear peptide (PEPSCAN-ELISA) [2]: 0.5
- Binding of serum London to looped/cyclic peptides of protein N of SARS-CoV Urbani [2]: 0.8
- Binding of serum SARS-green to linear peptide (PEPSCAN-ELISA) [2]: 0.3
- Binding of serum SARS-green to looped/cyclic peptides of protein N of SARS-CoV Urbani [2]: 0.5
- Binding of serum SARS-yellow to linear peptide (PEPSCAN-ELISA) [2]: 0.7
- Binding of serum SARS-yellow to looped/cyclic peptides of protein N of SARS-CoV Urbani [2]: 0.6
- Binding of antibody 03-018 to linear peptides of the N protein of SARS-CoV Urbani [3]: 0.1
- Binding of antibody 03-018 to looped/cyclic peptides of the N protein of SARS-CoV Urbani [3]: 0.2
- Binding of Control Serum Blood-Bank to Looped peptides [4]: 0.8
- Binding of Control serum Blood-bank to linear peptides [4]: 0.6
- Binding of Control serum LUMC to linear peptides [4]: 0.7
- Binding of Control serum LUMC to looped peptides [4]: 0.8

Sequence: SLPYGANKEGIVWVA
- Binding of a rabbit serum to linear peptides of protein N of SARS-CoV Urbani (Rabbit serum linear peptides) [1]: 0.2
- Binding of a rabbit serum to looped/cyclic peptides of protein N of SARS-CoV Urbani (Rabbit serum looped peptides) [1]: 0.3
- Binding of serum 1a to linear peptides of protein N of SARS-CoV Urbani [2]: 0.3
- Binding of serum 1a to looped/cyclic peptides of protein N of SARS-CoV Urbani [2]: 0.3
- Binding of serum 1b to linear peptides of protein N of SARS-CoV Urbani [2]: 0.1
- Binding of serum 1b to looped/cyclic peptides of protein N of SARS-CoV Urbani [2]: 0.2
- Binding of serum 2 to linear peptides of protein N of SARS-CoV Urbani [2]: 0.2
- Binding of serum 2 to looped/cyclic peptides of protein N of SARS-CoV Urbani [2]: 0.5
- Binding of serum 6 to linear peptides of protein N of SARS-CoV Urbani [2]: 0.2
- Binding of serum 6 to looped/cyclic peptides of protein N of SARS-CoV Urbani [2]: 0.3
- Binding of serum 37 to linear peptides of protein N of SARS-CoV Urbani [2]: 0.8
- Binding of serum 37 to looped/cyclic peptides of protein N of SARS-CoV Urbani [2]: 0.7
- Binding of serum 62 to linear peptides of protein N of SARS-CoV Urbani [2]: 1.2
- Binding of serum 62 to looped/cyclic peptides of protein N of SARS-CoV Urbani [2]: 0.6
- Binding of serum London to linear peptides of protein N of SARS-CoV Urbani [2]: 0.6
- Binding of serum London to looped/cyclic peptides of protein N of SARS-CoV Urbani [2]: 0.4
- Binding of serum SARS-green to linear peptides of protein N of SARS-CoV Urbani [2]: 0.5
- Binding of serum SARS-green to looped/cyclic peptides of protein N of SARS-CoV Urbani [2]: 0.3
- Binding of serum SARS-yellow to linear peptides of protein N of SARS-CoV Urbani [2]: 0.7
- Binding of serum SARS-yellow to looped/cyclic peptides of protein N of SARS-CoV Urbani [2]: 0.4
- Binding of antibody 03-018 to linear peptides of the N protein of SARS-CoV Urbani [3]: 0.1
- Binding of antibody 03-018 to looped/cyclic peptides of the N protein of SARS-CoV Urbani [3]: 0.2
- Binding of Control Serum Blood-Bank to Looped peptides [4]: 0.6
- Binding of Control serum Blood-bank to linear peptides [4]: 0.9
- Binding of Control serum LUMC to linear peptides [4]: 0.7
- Binding of Control serum LUMC to looped peptides [4]: 0.6
